The values below come from ChEMBL document CHEMBL1201862, “PubChem BioAssay data set” (2004).

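All cell lines were grown in 96-well plates and treated with compound for 48 hours. GI50 marks 50% less growth.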 Activity calls are given as the source filed them. No stated cut-off is given here; in the data, active = GI50 up to about 1.1 µM and inactive = higher. Bounds are passed on as bounds.

What all share (test): growth of human tumour cells (NCI), 48 h
Assay [1] concerns A498.
The subject of assay [2] is EKVX.
In assay [3] the test system is OVCAR-8.
Assay [4] relates to HL-60.
The test system of assay [5] is SF-539.
For assay [6], the system named is SN12C.
The subject of assay [7] is OVCAR-3.
Assay [8] concerns UO-31.
Assay [9] concerns HT-29.
Assay [10] relates to SNB-75.
In assay [11] the test system is UACC-62.
Assay [12] relates to MOLT-4.
The test system of assay [13] is HOP-62.
For assay [14], the system named is RPMI-8226.
Assay [15] deals with RXF 393.
Assay [16] concerns NCI-H460.
For assay [17], the system named is HOP-92.
In assay [18] the test system is K562.
Assay [19] concerns COLO 205.
Assay [20] concerns SF-295.

In the case of `O=C1OC(c2ccccc2)=N/C1=C/NC(Cc1c[nH]cn1)C(=O)O` (stereo not given), the GI50 in [1], in assay [2], in assay [3], in assay [4], in assay [5] and in assay [6] was > 100 µM (inactive) in each case. For the same compound, the GI50 in assay [7], in assay [8], in assay [9], in assay [10], in assay [11] and in [12] was > 100 µM (inactive) in each case. Also, the GI50 in assay [13], in assay [14], in assay [15], in assay [16], in [17] and in assay [18] was > 100 µM (inactive) throughout. The GI50 in assay [19] and in assay [20] was > 100 µM (inactive) throughout.

As for `O=C1CCC2(c3ccc(F)cc3)Nc3ncccc3N12` (stereo not given), the GI50 in assay [1], in assay [2], in assay [3], in assay [4], in assay [5] and in assay [6] was > 100 µM (inactive) each time. In addition, the GI50 in [7] is > 100 µM (inactive); in assay [8], > 100 µM (inactive); in assay [9] it was > 100 µM (inactive); in [10], 70.1 µM (inactive); in assay [11], > 100 µM (inactive); in [12] it was > 100 µM (inactive). The GI50 in assay [13], in assay [14], in [15], in [16], in [17] and in [18] was > 100 µM (inactive) each time. For the same compound, the GI50 in [19] and in assay [20] was > 100 µM (inactive) throughout.

With `COc1ccc(-c2nc(SCC(=O)N/N=C/c3ccc([N+](=O)[O-])cc3)[nH]c2-c2ccc(OC)cc2)cc1`, the GI50 is 14.3 µM (inactive) in assay [1]; 16.4 µM (inactive) in assay [2]; 17.7 µM (inactive) in assay [3]; 4.07 µM (inactive) in [4]; 11.9 µM (inactive) in assay [5]; 16.6 µM (inactive) in assay [6]. Further, the GI50 is 10.4 µM (inactive) in [7]; 18.8 µM (inactive) in assay [8]; 8.41 µM (inactive) in assay [9]; 15.2 µM (inactive) in [10]; 7.01 µM (inactive) in assay [11]; 7.66 µM (inactive) in assay [12]. Further, the GI50 in assay [13] was 16.7 µM (inactive); in assay [14], 8.91 µM (inactive); in assay [15], 11.4 µM (inactive); in [16], 10.3 µM (inactive); in assay [17] it was 12.6 µM (inactive); in assay [18], 7.45 µM (inactive). Besides, the values for the GI50 in assay [19] and in assay [20] were 2.23 µM (inactive) and 8.05 µM (inactive), respectively.

As to `CS(=O)(=O)c1nc(Cl)c(Cl)c(C#N)c1Cl`, the GI50 in [1] is 17.5 µM (inactive); in assay [2], 6.27 µM (inactive); in assay [3], 2.88 µM (inactive); in [4], 1.15 µM (inactive); in [5], 4.48 µM (inactive); in [6], 2.27 µM (inactive). For the same compound, the GI50 in assay [7] is 2.08 µM (inactive); in assay [8] it was 1.91 µM (inactive); in assay [9], 1.97 µM (inactive); in [10] it was 9.89 µM (inactive); in assay [11], 3.31 µM (inactive); in [12] it was 0.838 µM (active). In addition, the GI50 in assay [13] is 19.3 µM (inactive); in assay [14], 2.32 µM (inactive); in assay [15], 1.61 µM (inactive); in assay [16] it was 11.5 µM (inactive); in assay [17] it was 1.99 µM (inactive); in assay [18] it was 0.859 µM (active). For the same compound, the GI50 was 1.45 µM (inactive) in assay [19] and 16.7 µM (inactive) in assay [20].

As to `C=C1CC2(CCCC3(CC(=C)C(=O)O3)C2(C)C)OC1=O` (stereo not given), the GI50 was 21.4 µM (inactive) in assay [1]; 4.02 µM (inactive) in assay [2]; 1.38 µM (inactive) in assay [3]; 2.4 µM (inactive) in [4]; 3.26 µM (inactive) in assay [5]; 3.03 µM (inactive) in assay [6]. Besides, the GI50 in assay [7] was 1.96 µM (inactive); in [8] it was 3.06 µM (inactive); in [9] it was 3.82 µM (inactive); in [10] it was 16.7 µM (inactive); in [11], 2 µM (inactive); in [12] it was 0.302 µM (active). Besides, the GI50 was 13.9 µM (inactive) in assay [13]; 0.47 µM (active) in assay [14]; 3.86 µM (inactive) in assay [15]; 18.7 µM (inactive) in [16]; 5.85 µM (inactive) in [17]; 3.38 µM (inactive) in assay [18]. The GI50 in assay [19] was 2.21 µM (inactive); in assay [20] it was 16.5 µM (inactive).

For `CNc1ccc(Cl)cc1C(=O)N1CCC[C@H]1CO`, the GI50 in assay [1], in assay [2], in assay [3], in [4], in assay [5] and in assay [6] was > 100 µM (inactive) throughout. In addition, the GI50 in assay [7] was > 100 µM (inactive); in assay [8] it was > 100 µM (inactive); in assay [9], > 100 µM (inactive); in assay [10], 99.3 µM (inactive); in assay [11], > 100 µM (inactive); in assay [12] it was > 100 µM (inactive). For the same compound, the GI50 in [13] is > 100 µM (inactive); in assay [14], > 100 µM (inactive); in [15], > 100 µM (inactive); in [16], > 100 µM (inactive); in assay [17], > 58.6 µM (inactive); in assay [18], > 100 µM (inactive). For the same compound, the GI50 in [19] and in [20] was > 100 µM (inactive) in each case.

Consider `CCN(CC)c1ncnc2c1ncn2CCNC(CO)(CO)CO`, for which the GI50 in assay [1], in [2], in assay [3], in [4], in assay [5] and in assay [6] was > 100 µM (inactive) each time. The GI50 in [7], in [8], in assay [9], in assay [10], in assay [11] and in assay [12] was > 100 µM (inactive) in each case. Besides, the GI50 in assay [13], in assay [14], in assay [15], in assay [16], in assay [17] and in [18] was > 100 µM (inactive) throughout. For the same compound, the GI50 in assay [19] and in assay [20] was > 100 µM (inactive) each time.

As for `CC[C@@H](C)[C@@H]1NC(=O)C(C(C)=O)=C1O`, the GI50 in [1] was 24.4 µM (inactive); in assay [2] it was 27.7 µM (inactive); in assay [3] it was 24.9 µM (inactive); in assay [4] it was 53.8 µM (inactive); in assay [5] it was 23.1 µM (inactive); in assay [6] it was 25.1 µM (inactive). Moreover, the GI50 in assay [7] was 27.6 µM (inactive); in assay [8], 30.4 µM (inactive); in assay [9], 32.1 µM (inactive); in [10], 25.4 µM (inactive); in assay [11], 12.5 µM (inactive); in [12] it was 11.4 µM (inactive). In addition, the GI50 is 18.3 µM (inactive) in [13]; 26.2 µM (inactive) in assay [14]; 26.7 µM (inactive) in assay [15]; 15.3 µM (inactive) in assay [16]; 43.4 µM (inactive) in assay [17]; 24 µM (inactive) in assay [18]. For the same compound, the GI50 was 17.9 µM (inactive) in assay [19] and 26.9 µM (inactive) in assay [20].

As to `Cn1c(=O)cc2[nH]c3ccccc3n2c1=O`, the GI50 was > 100 µM (inactive) in assay [1]; > 100 µM (inactive) in [2]; 43.8 µM (inactive) in [3]; > 100 µM (inactive) in assay [4]; 20.3 µM (inactive) in assay [5]; > 10 µM (inactive) in assay [6]. For the same compound, the GI50 in assay [7] was > 100 µM (inactive); in assay [8], 93.3 µM (inactive); in [9] it was 49.3 µM (inactive); in [10], > 100 µM (inactive); in assay [11] it was > 100 µM (inactive); in [12], > 100 µM (inactive). For the same compound, the GI50 was > 100 µM (inactive) in [13]; > 100 µM (inactive) in assay [14]; 28.8 µM (inactive) in [15]; 57.5 µM (inactive) in assay [16]; > 100 µM (inactive) in assay [17]; 42.1 µM (inactive) in assay [18]. In addition, the GI50 in [19] was 14.2 µM (inactive); in assay [20] it was > 100 µM (inactive).

For `NC1CCC[C@H]1O` (stereo not given in full), the GI50 in assay [1], in [2], in [3], in assay [4], in [5] and in [6] was > 100 µM (inactive) throughout. The GI50 in assay [7], in assay [8], in assay [9], in assay [10], in assay [11] and in [12] was > 100 µM (inactive) in each case. Moreover, the GI50 in [13], in assay [14], in assay [15], in assay [16], in [17] and in assay [18] was > 100 µM (inactive) each time. The GI50 in [19] and in assay [20] was > 100 µM (inactive) each time.
